This passage reports IC50 results from patent publication US20260325533A1, “CDK INHIBITOR COMPOUNDS” (ALEKSIA THERAPEUTICS, INC., priority 2023, published 2026).

For one test, the target named is CDK2/CCNE1 (Homo sapiens, UniProt P24941). Briefly: CDK2 homogeneous time-resolved fluorescence (HTRF) kinase assay. Type of test: biochemical. To be noted: CDK2/CCNE. The method, boiled down: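 An HTRF format measures CDK2/CCNE1 (3 nM) phosphorylating a 4E-BP1 Thr37/46 peptide at high (1 mM) ATP. Reactions run one hour at 23 °C, then EDTA-quenched and probed with Eu-labelled phospho-specific antibody.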

In another test the target is CDK1/CCNB1 (Homo sapiens, UniProt P06493). In words: CDK1 homogeneous time-resolved fluorescence (HTRF) kinase assay. Type of test: biochemical. To be noted: CDK1/CCNB. The method, boiled down: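 0.5 nM CDK1/CCNB1 was preincubated 20 min at 23 °C with compound in HEPES pH-unspecified buffer (MgCl2, EGTA, DTT, Tween 20), then reacted 60 min with 1 mM ATP and 50 nM ULight-4E-BP1 (Thr37/46) peptide. EDTA-stopped reactions were detected with 2 nM Eu-anti-phospho antibody; IC50 from 11-point half-log titrations.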

The mark [1] stands for this setting: >250 nM marked x, read-out: CDK2/CCNE IC50 >250 nM.
Setting [2] is: >250 nM marked x, read-out: CDK1/CCNB IC50 >250 nM.
The mark [3] stands for this setting: 25-250 nM marked x, read-out: CDK2/CCNE IC50 25-250 nM.

Structures are written as SMILES. Like-named read-outs stand apart in the source and are kept apart here.

CDK1/CCNB1, sequence (P06493 whole entry): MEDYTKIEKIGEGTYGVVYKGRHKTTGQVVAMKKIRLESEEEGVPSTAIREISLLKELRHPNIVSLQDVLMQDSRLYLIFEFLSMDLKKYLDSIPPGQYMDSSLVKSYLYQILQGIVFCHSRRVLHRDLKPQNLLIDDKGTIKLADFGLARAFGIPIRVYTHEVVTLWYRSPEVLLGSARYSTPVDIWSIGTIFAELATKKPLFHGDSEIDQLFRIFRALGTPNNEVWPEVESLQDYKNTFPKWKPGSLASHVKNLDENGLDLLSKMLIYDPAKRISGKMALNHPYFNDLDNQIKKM
CDK1/CCNB1, sequence (P14635 whole entry partner): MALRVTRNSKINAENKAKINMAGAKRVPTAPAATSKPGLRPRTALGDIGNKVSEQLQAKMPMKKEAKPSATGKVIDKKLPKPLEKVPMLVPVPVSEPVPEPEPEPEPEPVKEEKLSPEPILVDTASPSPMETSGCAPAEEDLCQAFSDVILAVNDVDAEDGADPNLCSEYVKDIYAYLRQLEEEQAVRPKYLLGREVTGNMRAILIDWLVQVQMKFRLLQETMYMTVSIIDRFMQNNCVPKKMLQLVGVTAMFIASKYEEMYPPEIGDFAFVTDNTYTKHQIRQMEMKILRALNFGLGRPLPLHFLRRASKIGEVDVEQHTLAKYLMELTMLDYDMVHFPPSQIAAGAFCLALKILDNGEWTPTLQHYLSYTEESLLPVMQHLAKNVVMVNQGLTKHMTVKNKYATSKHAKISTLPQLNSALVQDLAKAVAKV

Regarding `C=CCN1CCC(c2nccc3cnc(Nc4ccc(S(C)(=O)=O)cc4)cc23)CC1` [Ex 171, 5-(1-allylpiperidin-4-yl)-N-(4-(methylsulfonyl)phenyl)-2,6-naphthyridin-3-amine], the IC50 on CDK2/CCNE1 (setting [1]) and at CDK1/CCNB1 (setting [2]) was above 250 nM throughout.

Turning to `CS(=O)(=O)c1ccc(Nc2cc3c(C4CCN(Cc5ccccc5)CC4)nccc3cn2)cc1` [Ex 172, 5-(1-benzylpiperidin-4-yl)-N-(4-(methylsulfonyl)phenyl)-2,6-naphthyridin-3-amine], the IC50 on CDK2/CCNE1 (setting [1]) and at CDK1/CCNB1 (setting [2]) was above 250 nM each time.

For the molecule `COc1ccc(CN2CCC(c3nccc4cnc(Nc5ccc(S(C)(=O)=O)cc5)cc34)CC2)cc1` [Ex 173, 5-(1-(4-methoxybenzyl)piperidin-4-yl)-N-(4-(methylsulfonyl)phenyl)-2,6-naphthyridin-3-amine], the IC50 on CDK2/CCNE1 (setting [1]) and on CDK1/CCNB1 (setting [2]) was above 250 nM throughout.

As to `CS(=O)(=O)c1ccc(Nc2cc3c(C4CCN(Cc5cccnc5)CC4)nccc3cn2)cc1` [Ex 174, N-(4-(methylsulfonyl)phenyl)-5-(1-(pyridin-3-ylmethyl)piperidin-4-yl)-2,6-naphthyridin-3-amine], the IC50 at CDK2/CCNE1 (setting [1]) and on CDK1/CCNB1 (setting [2]) was above 250 nM each time.

With `CS(=O)(=O)c1ccc(Nc2cc3c(C4CCN(S(C)(=O)=O)CC4)nccc3cn2)cc1` [Ex 175, N-(4-(methylsulfonyl)phenyl)-5-(1-(methylsulfonyl)piperidin-4-yl)-2,6-naphthyridin-3-amine], the IC50 at CDK2/CCNE1 (setting [1]) and on CDK1/CCNB1 (setting [2]) was above 250 nM in each case.

With `CC(C)S(=O)(=O)N1CCC(c2nccc3cnc(Nc4ccc(S(C)(=O)=O)cc4)cc23)CC1` [Ex 176, 5-(1-(isopropylsulfonyl)piperidin-4-yl)-N-(4-(methylsulfonyl)phenyl)-2,6-naphthyridin-3-amine], the IC50 at CDK2/CCNE1 (setting [1]) and on CDK1/CCNB1 (setting [2]) was above 250 nM throughout.

In the case of `CNC(=O)N1CCC(c2nccc3cnc(Nc4ccc(S(C)(=O)=O)cc4)cc23)CC1` [Ex 177, N-methyl-4-(7-((4-(methylsulfonyl)phenyl)amino)-2,6-naphthyridin-1-yl)piperidine-1-carboxamide], the IC50 on CDK2/CCNE1 (setting [1]) and on CDK1/CCNB1 (setting [2]) was above 250 nM throughout.

Regarding `CNC(=O)[C@H]1CC[C@H](c2nccc3cnc(Nc4ccc(S(C)(=O)=O)cc4)cc32)CC1` [Ex 178, (1r,4r)-N-methyl-4-(7-((4-(methylsulfonyl)phenyl)amino)-2,6-naphthyridin-1-yl)cyclohexane-1-carboxamide], the IC50 on CDK2/CCNE1 (setting [3]) was 25 to 250 nM; at CDK1/CCNB1 (setting [2]) it was above 250 nM.

In the case of `CCNC(=O)[C@H]1CC[C@H](c2nccc3cnc(Nc4ccc(S(C)(=O)=O)cc4)cc32)CC1` [Ex 179, (1r,4r)-N-ethyl-4-(7-((4-(methylsulfonyl)phenyl)amino)-2,6-naphthyridin-1-yl)cyclohexane-1-carboxamide], the results for the IC50 on CDK2/CCNE1 (setting [3]) and at CDK1/CCNB1 (setting [2]) were 25 to 250 nM and above 250 nM, respectively.

As for `CCCNC(=O)[C@H]1CC[C@H](c2nccc3cnc(Nc4ccc(S(C)(=O)=O)cc4)cc32)CC1` [Ex 180, (1r,4r)-4-(7-((4-(methylsulfonyl)phenyl)amino)-2,6-naphthyridin-1-yl)-N-propylcyclohexane-1-carboxamide], the IC50 at CDK2/CCNE1 (setting [3]) is 25 to 250 nM; on CDK1/CCNB1 (setting [2]), above 250 nM.

On to `CC(C)NC(=O)[C@H]1CC[C@H](c2nccc3cnc(Nc4ccc(S(C)(=O)=O)cc4)cc32)CC1` [Ex 181, (1r,4r)-N-isopropyl-4-(7-((4-(methylsulfonyl)phenyl)amino)-2,6-naphthyridin-1-yl)cyclohexane-1-carboxamide], for which the IC50 at CDK2/CCNE1 (setting [1]) and at CDK1/CCNB1 (setting [2]) was above 250 nM each time.

`Cc1c(-c2nccc3cnc(Nc4ccc(S(C)(=O)=O)cc4)cc23)ccc2c1cnn2C1CCNCC1` [Ex 182, 5-(4-methyl-1-(piperidin-4-yl)-1H-indazol-5-yl)-N-(4-(methylsulfonyl)phenyl)-2,6-naphthyridin-3-amine]: the IC50 on CDK2/CCNE1 (setting [3]) is 25 to 250 nM; at CDK1/CCNB1 (setting [2]), above 250 nM.

Take `CS(=O)(=O)c1ccc(Nc2cc3c(N4CCCCC4)nc(C=O)cc3cn2)cc1` [Ex 186, 7-((4-(methylsulfonyl)phenyl)amino)-1-(piperidin-1-yl)-2,6-naphthyridine-3-carbaldehyde]: the results for the IC50 at CDK2/CCNE1 (setting [3]) and at CDK1/CCNB1 (setting [2]) were 25 to 250 nM and above 250 nM, respectively.

With `C=CS(=O)(=O)c1ccc(Nc2cc3c(N4CC(C#N)C4)nccc3cn2)cc1` [Ex 188, 1-(7-((4-(vinylsulfonyl)phenyl)amino)-2,6-naphthyridin-1-yl)azetidine-3-carbonitrile], the values for the IC50 on CDK2/CCNE1 (setting [3]) and on CDK1/CCNB1 (setting [2]) were 25 to 250 nM and above 250 nM, respectively.

For `Cc1c(-c2nccc3cnc(Nc4ccc(S(C)(=O)=O)cc4)cc23)ccc2c1cnn2CCC#N` [Ex 194, 3-(4-methyl-5-(7-((4-(methylsulfonyl)phenyl)amino)-2,6-naphthyridin-1-yl)-1H-indazol-1-yl)propanenitrile], the IC50 was 25 to 250 nM on CDK2/CCNE1 (setting [3]) and above 250 nM at CDK1/CCNB1 (setting [2]).

Regarding `Cc1c(-c2nccc3cnc(Nc4ccc(S(C)(=O)=O)cc4)cc23)ccc2nn(CC3CNC3)cc12` [Ex 196, 5-(2-(azetidin-3-ylmethyl)-4-methyl-2H-indazol-5-yl)-N-(4-(methylsulfonyl)phenyl)-2,6-naphthyridin-3-amine], the IC50 is 25 to 250 nM on CDK2/CCNE1 (setting [3]) and above 250 nM on CDK1/CCNB1 (setting [2]).

With `Cc1c(-c2nccc3cnc(Nc4ccc(S(C)(=O)=O)cc4)cc23)ccc2nn(CCC#N)cc12` [Ex 197, 3-(4-methyl-5-(7-((4-(methylsulfonyl)phenyl)amino)-2,6-naphthyridin-1-yl)-2H-indazol-2-yl)propanenitrile], the values for the IC50 on CDK2/CCNE1 (setting [3]) and on CDK1/CCNB1 (setting [2]) were 25 to 250 nM and above 250 nM, respectively.

In the case of `C=CS(=O)(=O)c1ccc(Nc2cc3c(-c4ccc5[nH]ncc5c4)nccc3cn2)cc1` [Ex 205, 5-(1H-indazol-5-yl)-N-(4-(vinylsulfonyl)phenyl)-2,6-naphthyridin-3-amine], the IC50 at CDK2/CCNE1 (setting [3]) is 25 to 250 nM; on CDK1/CCNB1 (setting [2]) it was above 250 nM.

In the case of `Cc1c(-c2nccc3cnc(Nc4ccc(S(C)(=O)=O)cc4)cc23)ccc2nn(CCC3CNC3)cc12` [Ex 208, 5-(2-(2-(azetidin-3-yl)ethyl)-4-methyl-2H-indazol-5-yl)-N-(4-(methylsulfonyl)phenyl)-2,6-naphthyridin-3-amine], the IC50 at CDK2/CCNE1 (setting [3]) is 25 to 250 nM; at CDK1/CCNB1 (setting [2]), above 250 nM.

Turning to `C=CS(=O)(=O)c1ccc(Nc2cc3c(-c4cc5cn[nH]c5cc4C)nccc3cn2)cc1` [Ex 209, 5-(6-methyl-1H-indazol-5-yl)-N-(4-(vinylsulfonyl)phenyl)-2,6-naphthyridin-3-amine], the IC50 at CDK2/CCNE1 (setting [3]) was 25 to 250 nM; at CDK1/CCNB1 (setting [2]), above 250 nM.

Regarding `N#CC1CCN(c2nccc3cnc(Nc4ccc(O)c(CO)c4)cc23)CC1` [Ex 210, 1-(7-((4-hydroxy-3-(hydroxymethyl)phenyl)amino)-2,6-naphthyridin-1-yl)piperidine-4-carbonitrile], the IC50 at CDK2/CCNE1 (setting [3]) fell in the range of 25 to 250 nM; at CDK1/CCNB1 (25-250 nM marked x, read-out: CDK1/CCNB IC50 25-250 nM), 25 to 250 nM.

Take `CC1(C#N)CCN(c2nccc3cnc(NC4CCN(S(C)(=O)=O)CC4)cc23)CC1` [Ex 212, 4-methyl-1-(7-((1-(methylsulfonyl)piperidin-4-yl)amino)-2,6-naphthyridin-1-yl)piperidine-4-carbonitrile]: the IC50 at CDK2/CCNE1 (setting [3]) was 25 to 250 nM; at CDK1/CCNB1 (setting [2]) it was above 250 nM.
